Literature values as cited in patent US20060270013A1 (priority 2003, published 2006).

Target: NADPH-dependent benzil reductase (Bacillus cereus, UniProt Q8RJB2)
Details: substrate of benzil reductase; Maruyama et al. 2002

NADPH-dependent benzil reductase, sequence (Q8RJB2 whole entry): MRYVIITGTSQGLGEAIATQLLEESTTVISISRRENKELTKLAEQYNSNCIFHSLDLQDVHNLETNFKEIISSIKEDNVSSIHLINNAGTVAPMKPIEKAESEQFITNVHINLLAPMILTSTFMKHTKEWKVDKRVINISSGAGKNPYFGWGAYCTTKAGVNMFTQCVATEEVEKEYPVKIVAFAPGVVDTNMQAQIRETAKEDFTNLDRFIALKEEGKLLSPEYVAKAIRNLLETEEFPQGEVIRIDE

## CC(=O)C(=O)c1ccccc1 [1-phenyl-1,2-propanedione]
  Km: 42 µM
  kcat: 2.75 s⁻¹

## O=Cc1ccc([N+](=O)[O-])cc1 [p-nitrobenzaldehyde]
  Km: 261 µM
  kcat: 0.02 s⁻¹
